Test results as given in patent US9896441B2 (Lycera Corporation, priority 2014, dated 2018).

These compounds were tested against T1, Gal4-RORγ-LBD (Homo sapiens, UniProt P51449) (assay: Gal4-RORγ Luciferase Reporter Assay in HEK-293T Cells). Settings: HEK-293 cells, luciferase reporter, in presence of ursolic acid.
T1 construct: expressed in transfected cells
T1 sequence (P51449 269-508 limits assumed): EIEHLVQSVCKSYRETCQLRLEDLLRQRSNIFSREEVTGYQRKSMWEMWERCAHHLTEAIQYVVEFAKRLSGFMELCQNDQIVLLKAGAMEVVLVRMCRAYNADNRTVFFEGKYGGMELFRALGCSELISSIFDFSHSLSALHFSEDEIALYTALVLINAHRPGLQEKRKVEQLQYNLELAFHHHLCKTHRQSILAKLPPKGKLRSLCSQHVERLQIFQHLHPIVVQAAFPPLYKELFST
Assay type: cell-based
Procedure: Assay procedures and results are described below.
In the following protocol, HEK-293 cells were transfected with a construct comprising the Gal4 DNA binding domain fused to the ligand binding domain of RORγ (Gal4-RORγ-LBD) in a pcDNA3.1neo plasmid, and also with a reporter construct comprising pGL4.31 Gal4-luciferase (Promega). Control cells were prepared similarly using empty pcDNA3.1neo and pGL4.31 vectors.
Trans-IT reagent (Mirus, 60 μL) at room temperature was added drop wise to OptiMEM (Invitrogen, 1.5 ml). This reagent mixture was mixed by inversion then incubated for 5 to 30 minutes at room temperature. It then was added to a solution of both expression vectors (5 μg each), mixed, and incubated at room temperature for about 20 minutes. HEK-293 cells were harvested from incubation flasks by removing the media, treating with TrypLE Express (Invitrogen), and incubating until the cells detached from the bottom of the flask (approximately 2-5 minutes). 10 Million cells were collected by centrifugation and re-suspended in 10 mL of Dulbecco's Modified Eagle Medium, High Glucose (DMEM, Invitrogen) containing 10% Fetal Bovine Serum and 100 IU each of penicillin and streptomycin. The re-suspended cells and the transfection mixture were added to a T75 flask, mixed and incubated overnight at 37° C. and 5% CO2.
The cells were harvested as described above, counted, and centrifuged to obtain the desired number of cells, then re-suspended in complete growth media at 0.75×10^6 cells/mL. The RORγ antagonist, ursolic acid, was added to the cells at a final concentration of […]. Cells were plated at 20 µL of cell suspension/well (10,000-15,000 cells/well) in white tissue culture treated 384 well plates. Test compounds were dissolved at 10 mM in DMSO then diluted into complete growth medium to 5× the final intended test concentration. These drug stock solutions, 5 µL/well were added to the tissue culture plate. The final DMSO concentration was 0.2%. The plates were briefly centrifuged then incubated overnight at 37° C. and 5% CO2. To conduct the assay, the tissue culture plates were allowed to equilibrate to room temperature and One-Glo luciferase reagent (Promega, 25 µL/well) was added. The plates were briefly centrifuged then incubated at room temperature for 10 minutes. The luciferase intensity was read on an Envision plate reader (Perkin Elmer). […] The luciferase signal in the absence of ursolic acid or test compound is defined at 100. The Max Response is the upper plateau in the signal as determined by line-fit using a 4-parameter logistic model in PRISM (GraphPad).
In the case of C/C(=C\c1ccc2c(c1)N(S(=O)(=O)c1cccc(C(F)(F)F)c1)C[C@H](CCC(=O)N1CC(C#N)C1)O2)c1c(F)cccc1Cl [Example 127M, (S,E)-1-(3-(6-(2-(2-chloro-6-fluorophenyl)-prop-1-en-1-yl)-4-((3-(trifluoromethyl)phenyl)-sulfonyl)-3,4-dihydro-2H-benzo[b][1,4]oxazin-2-yl)propanoyl)azetidine-3-carbonitrile], the EC50 is reported as < 500 nM.

Same assay, conditions: HEK-293 cells, luciferase reporter, in presence of ursolic acid, maximum response
With C/C(=C\c1ccc2c(c1)N(S(=O)(=O)c1cccc(C(F)(F)F)c1)C[C@H](CCC(=O)N1CC(C#N)C1)O2)c1c(F)cccc1Cl [Example 127M, (S,E)-1-(3-(6-(2-(2-chloro-6-fluorophenyl)-prop-1-en-1-yl)-4-((3-(trifluoromethyl)phenyl)-sulfonyl)-3,4-dihydro-2H-benzo[b][1,4]oxazin-2-yl)propanoyl)azetidine-3-carbonitrile] the “Gal4-RORγ Assay Max Response” value was “** (a value in the range of greater than 90 to 150)”. In the case of C/C(=C\c1ccc2c(c1)N(S(=O)(=O)c1cccc(C(F)(F)F)c1)C[C@H](CCC(=O)N1CC(O)C1)O2)c1c(F)cccc1Cl [Example 127L, (S,E)-3-(6-(2-(2-chloro-6-fluorophenyl)prop-1-en-1-yl)-4-((3-(trifluoro-methyl)phenyl)sulfonyl)-3,4-dihydro-2H-benzo[b][1,4]oxazin-2-yl)-1-(3-hydroxyazetidin-1-yl)propan-1-one], the “Gal4-RORγ Assay Max Response” value is reported as “* (a value in the range of 30 to 90)”. In the case of C/C(=C\c1ccc2c(c1)N(S(=O)(=O)c1cccc(C(F)(F)F)c1)C[C@H](CCC(=O)N1C3CCC1COC3)O2)c1c(F)cccc1Cl [Example 127K, 1-(3-oxa-8-azabicyclo-[3.2.1]octan-8-yl)-3-((S)-6-((E)-2-(2-chloro-6-fluorophenyl)prop-1-en-1-yl)-4-((3-(trifluoro-methyl)phenyl)sulfonyl)-3,4-dihydro-2H-benzo[b][1,4]oxazin-2-yl)propan-1-one], the “Gal4-RORγ Assay Max Response” value is reported as “** (a value in the range of greater than 90 to 150)”.

Same assay, conditions: HEK-293 cells, luciferase reporter, with ursolic acid
For CC/C(=C\c1ccc2c(c1)N(S(=O)(=O)c1cccc(C(F)(F)F)c1)C[C@H](CCC(=O)O)O2)c1ccccc1Cl [Example 36A, (S,E)-3-(6-(2-(2-chlorophenyl)but-1-en-1-yl)-4-((3-(trifluoromethyl)-phenyl)sulfonyl)-3,4-dihydro-2H-benzo[b][1,4]oxazin-2-yl)propanoic acid], the EC50 was < 500 nM. With CCOc1nn2c(c1S(=O)(=O)N1C[C@H](CCC(=O)O)Oc3ccc(/C=C(\C)c4c(F)cccc4Cl)cc31)CCCC2 [Example 66, (S,E)-3-(6-(2-(2-Chloro-6-fluorophenyl)prop-1-en-1-yl)-4-((2-ethoxy-4,5,6,7-tetrahydropyrazolo[1,5-a]pyridin-3-yl)sulfonyl)-3,4-dihydro-2H-benzo[b][1,4]oxazin-2-yl)propanoic acid] the EC50 was < 500 nM. In the case of CC(C)c1ccccc1/C=C/c1ccc2c(c1)N(S(=O)(=O)c1cccc(C(F)(F)F)c1)C[C@H](CCC(=O)O)O2 [Example 89CB, (S,E)-3-(6-(2-isopropylstyryl)-4-((3-(trifluoromethyl)-phenyl)-sulfonyl)-3,4-dihydro-2H-benzo[b][1,4]oxazin-2-yl)propanoic acid], the EC50 is reported as 500 to 5000 nM. In the case of COC(=O)CC[C@H]1CN(S(=O)(=O)c2cccc(C(F)(F)F)c2)c2cc(/C=C(\C)c3ccccc3OC)ccc2O1 [Example 86AJ, (S,E)-methyl 3-(6-(2-(2-methoxyphenyl)prop-1-en-1-yl)-4-((3-(trifluoromethyl)phenyl)sulfonyl)-3,4-dihydro-2H-benzo[b][1,4]-oxazin-2-yl)propanoate], the EC50 is reported as < 500 nM. With O=C(O)CC[C@H]1CN(S(=O)(=O)c2cccc(C(F)(F)F)c2)c2cc(/C=C3\CCc4ccccc43)ccc2O1 [Example 38C, (S,E)-3-(6-((2,3-dihydro-1H-inden-1-ylidene)methyl)-4-((3-(trifluoromethyl)phenyl)sulfonyl)-3,4-dihydro-2H-benzo[b][1,4]-oxazin-2-yl)propanoic acid] the EC50 was 500 to 5000 nM. In the case of C/C(=C\c1ccc2c(c1)N(S(=O)(=O)c1cccc(C(F)(F)F)c1)C[C@H](CCC(=O)O)O2)c1c(Cl)cccc1Cl [Example 86AE, (S,E)-3-(6-(2-(2,6-dichlorophenyl)prop-1-en-1-yl)-4-((3-(trifluoromethyl)phenyl)-sulfonyl)-3,4-dihydro-2H-benzo[b][1,4]oxazin-2-yl)propanoic acid], the EC50 is reported as < 500 nM.
